Results on two compounds are retold here after patent publication US10441663B2, “Methods for treating cancer” (Bicycle Therapeutics Limited, priority 2016, dated 2019).

In assay [1] the test system is LU-01-0486 PDX model. It is filed as in vivo, Mus Musculus. As to conditions: Docetaxel group. Here is the method:
The objective of this study was to evaluate the in vivo anti-tumor efficacy of BT1718 in the treatment of MT1-MMP low-expressing LU-01-0486 PDX model in female Balb/C nude mice
Each mouse was inoculated subcutaneously at the right flank with LU-01-0486 of tumor fragment (30 mm^3) for tumor development. The treatments was started when the average tumor volume reaches 164 mm^3.
All the procedures related to animal handling, care and the treatment in the study were performed following the guidance of the Association for Assessment and Accreditation of Laboratory Animal Care (AAALAC). At the time of routine monitoring, the animals were daily checked for any effects of tumor growth and treatments on normal behavior such as mobility, food and water consumption (by looking only), body weight gain/loss (body weights were measured twice weekly), eye/hair matting and any other abnormal effect as stated in the protocol. Death and observed clinical signs were recorded on the basis of the numbers of animals within each subset.
The major endpoint was to see if the tumor growth could be delayed or mice could be cured. Tumor size was measured two times weekly in two dimensions using a caliper, and the volume was expressed in mm^3 using the formula: V=0.5 a×b^2 where a and b are the long and short diameters of the tumor, respectively. The tumor size was then used for calculations of T/C value. […]
TGI was calculated for each group using the formula: TGI (%)=[1−(Ti−T0)/(Vi−V0)]×100; Ti is the average tumor volume of a treatment group on a given day, T0 is the average tumor volume of the treatment group on the day of treatment start, Vi is the average tumor volume of the vehicle control group on the same day with Ti, and V0 is the average tumor volume of the vehicle group on the day of treatment start. […]
A one-way ANOVA was performed to compare tumor volume among groups, and when a significant F-statistics (a ratio of treatment variance to the error variance) was obtained, comparisons between groups were carried out with Games-Howell test. All data were analyzed using Prism. […]

Assay [2] concerns cell migration or invasion. The assay can be described thus: Effect on cell migration or invasion. Type of assay: cell-based. As to conditions: in vitro. Here is the method: (§1) A bicyclic constrained peptide binder (Bicycle) was identified that binds to the hemopexin domain of MT1 with an apparent Kd of approximately 2 nM. […] Bicycle drug conjugates (BDCs) with a variety of linkers and cytotoxic payloads were prepared which retained binding to MT1.

Assay [3] concerns the target MMP16 (Homo sapiens, UniProt P51512). Nature of the assay: Binding to related MMP family member.
Assay [4] deals with catalytic domain (MT1). Nature of the assay: Bicycle peptide binding to catalytic domain. Here is the method:
as §1

The target of assay [5] is MT1 (Homo sapiens, UniProt P50281). The assay can be described thus: Effect on catalytic activity of the protease in vitro. Type of assay: biochemical. Here is the method:
as §1

Assay [6] has as its target T1, MMP1 (Homo sapiens, UniProt P03956). Nature of the assay: Binding to related MMP family member. Here is the method: as §1
Assay [7] has as its target MMP24 (Homo sapiens, UniProt Q9Y5R2). Nature of the assay: Binding to related MMP family member. The protocol:
as §1

Assay [8] deals with T2, MMP2 (Homo sapiens, UniProt P08253). Nature of the assay: Binding to related MMP family member. Here is the method:
as §1

Assay [9] concerns the target MMP15 (Homo sapiens, UniProt P51511). Nature of the assay: Binding to related MMP family member.
Assay [10] addresses MMP9 (Homo sapiens, UniProt P14780). Nature of the assay: Effect on related MMP catalytic activity. As to conditions: in vitro. It is filed as biochemical. Here is the method: as §1
The target of assay [11] is T1, MMP1. Nature of the assay: Effect on related MMP catalytic activity. Type of assay: biochemical. To be noted: in vitro. Here is the method: as §1
Assay [12] concerns the target T2, MMP2. Nature of the assay: Effect on related MMP catalytic activity. As to conditions: in vitro. Type of assay: biochemical. Here is the method: as §1
Assay [13] has as its target T3, Pro-MMP1 (Homo sapiens, UniProt P03956).
T3 construct: MMP1, Pro-MMP1, MMP2
The assay can be described thus: Binding to related MMP family member.

*1 amine or outer side, *2 acyl side, *3 side chain or, on linkers, in order; H or OH if unused. Where a SMILES comes first, the peptide text is derived from it. Bridges are numbered along the chain shown (N, C = ends). [ ]: non-standard residue; d: D form. 1Nal = N[C@@H](Cc1cccc2ccccc12)C(=O)O; TBMB = c1c(C[*:1])cc(C[*:3])cc1C[*:2]; Tle = CC(C)(C)[C@H](N)C(=O)O; βAla = NCCC(=O)O; Sar = CNCC(=O)O

T1 sequence (P03956 100-469, species assumed): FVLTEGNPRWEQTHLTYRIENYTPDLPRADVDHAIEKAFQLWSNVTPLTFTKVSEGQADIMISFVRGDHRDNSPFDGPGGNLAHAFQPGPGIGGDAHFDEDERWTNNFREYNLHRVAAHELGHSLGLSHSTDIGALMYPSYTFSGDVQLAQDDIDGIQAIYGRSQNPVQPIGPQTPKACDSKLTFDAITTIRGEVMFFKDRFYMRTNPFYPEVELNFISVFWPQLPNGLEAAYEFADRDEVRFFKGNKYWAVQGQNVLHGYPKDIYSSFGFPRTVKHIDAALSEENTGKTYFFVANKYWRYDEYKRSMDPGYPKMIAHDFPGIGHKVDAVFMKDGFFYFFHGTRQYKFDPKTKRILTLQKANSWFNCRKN
T2 sequence (P08253 110-660, species assumed): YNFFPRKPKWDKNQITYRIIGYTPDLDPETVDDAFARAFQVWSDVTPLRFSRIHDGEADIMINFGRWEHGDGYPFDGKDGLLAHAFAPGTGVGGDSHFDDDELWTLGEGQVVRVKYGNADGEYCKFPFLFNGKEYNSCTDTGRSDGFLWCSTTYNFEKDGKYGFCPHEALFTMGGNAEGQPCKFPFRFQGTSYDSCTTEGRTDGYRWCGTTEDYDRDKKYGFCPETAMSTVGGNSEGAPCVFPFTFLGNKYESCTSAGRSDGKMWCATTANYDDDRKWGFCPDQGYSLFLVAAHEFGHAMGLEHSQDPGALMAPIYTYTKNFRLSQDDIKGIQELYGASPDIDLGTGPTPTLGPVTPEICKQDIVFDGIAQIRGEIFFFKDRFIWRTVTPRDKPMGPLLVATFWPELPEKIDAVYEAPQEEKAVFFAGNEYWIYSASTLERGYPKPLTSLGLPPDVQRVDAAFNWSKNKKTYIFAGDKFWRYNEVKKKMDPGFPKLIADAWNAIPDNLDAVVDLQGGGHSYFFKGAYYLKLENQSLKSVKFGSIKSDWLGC
Chain of MMP15 (P51511 132-669, species assumed): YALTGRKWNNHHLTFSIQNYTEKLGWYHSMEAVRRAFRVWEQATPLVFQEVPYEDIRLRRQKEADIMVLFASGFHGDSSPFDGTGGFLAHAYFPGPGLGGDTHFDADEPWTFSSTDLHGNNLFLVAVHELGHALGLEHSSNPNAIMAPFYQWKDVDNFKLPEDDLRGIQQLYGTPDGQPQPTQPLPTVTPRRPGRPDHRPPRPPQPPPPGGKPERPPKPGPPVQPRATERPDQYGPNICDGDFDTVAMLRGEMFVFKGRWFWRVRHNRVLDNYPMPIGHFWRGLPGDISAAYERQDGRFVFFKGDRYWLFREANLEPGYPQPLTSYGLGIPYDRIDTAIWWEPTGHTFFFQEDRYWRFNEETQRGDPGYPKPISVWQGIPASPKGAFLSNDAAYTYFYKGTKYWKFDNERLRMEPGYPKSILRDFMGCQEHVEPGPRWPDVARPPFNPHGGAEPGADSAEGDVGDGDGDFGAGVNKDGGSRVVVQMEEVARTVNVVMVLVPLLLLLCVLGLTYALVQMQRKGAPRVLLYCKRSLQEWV
Chain of MMP16 (P51512 120-607, species assumed): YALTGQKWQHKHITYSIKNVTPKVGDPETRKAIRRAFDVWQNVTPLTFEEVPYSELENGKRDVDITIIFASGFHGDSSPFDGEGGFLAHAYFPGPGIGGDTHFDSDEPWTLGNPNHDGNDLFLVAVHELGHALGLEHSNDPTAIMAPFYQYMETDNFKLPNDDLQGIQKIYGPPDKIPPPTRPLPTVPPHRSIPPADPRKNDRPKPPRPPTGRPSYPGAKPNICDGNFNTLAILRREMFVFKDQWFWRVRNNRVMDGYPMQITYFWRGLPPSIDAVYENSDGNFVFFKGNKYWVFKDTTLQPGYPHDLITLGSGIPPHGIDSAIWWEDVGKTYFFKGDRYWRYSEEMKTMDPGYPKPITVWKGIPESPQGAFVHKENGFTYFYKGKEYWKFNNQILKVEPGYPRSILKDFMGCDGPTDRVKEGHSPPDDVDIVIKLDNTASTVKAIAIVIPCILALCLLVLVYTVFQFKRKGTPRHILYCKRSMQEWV
Chain of MMP9 (P14780 94-707, species assumed): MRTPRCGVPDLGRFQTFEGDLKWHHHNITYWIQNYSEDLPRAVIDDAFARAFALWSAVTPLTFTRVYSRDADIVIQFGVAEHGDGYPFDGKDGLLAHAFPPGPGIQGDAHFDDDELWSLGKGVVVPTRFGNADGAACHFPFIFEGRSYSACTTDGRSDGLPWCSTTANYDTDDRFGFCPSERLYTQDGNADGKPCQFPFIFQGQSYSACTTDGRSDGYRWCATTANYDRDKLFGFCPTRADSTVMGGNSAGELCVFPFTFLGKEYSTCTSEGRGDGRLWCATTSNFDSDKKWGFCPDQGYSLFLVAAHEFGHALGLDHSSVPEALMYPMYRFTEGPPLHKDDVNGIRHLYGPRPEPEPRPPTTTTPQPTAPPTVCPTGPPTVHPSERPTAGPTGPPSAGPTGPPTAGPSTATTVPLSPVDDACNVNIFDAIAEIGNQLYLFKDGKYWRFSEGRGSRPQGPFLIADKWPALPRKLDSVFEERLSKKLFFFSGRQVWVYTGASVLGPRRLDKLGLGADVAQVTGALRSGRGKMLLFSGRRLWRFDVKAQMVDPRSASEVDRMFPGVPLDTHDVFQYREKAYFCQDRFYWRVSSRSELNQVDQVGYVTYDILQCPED
T3 sequence (P03956 20-469 limits assumed): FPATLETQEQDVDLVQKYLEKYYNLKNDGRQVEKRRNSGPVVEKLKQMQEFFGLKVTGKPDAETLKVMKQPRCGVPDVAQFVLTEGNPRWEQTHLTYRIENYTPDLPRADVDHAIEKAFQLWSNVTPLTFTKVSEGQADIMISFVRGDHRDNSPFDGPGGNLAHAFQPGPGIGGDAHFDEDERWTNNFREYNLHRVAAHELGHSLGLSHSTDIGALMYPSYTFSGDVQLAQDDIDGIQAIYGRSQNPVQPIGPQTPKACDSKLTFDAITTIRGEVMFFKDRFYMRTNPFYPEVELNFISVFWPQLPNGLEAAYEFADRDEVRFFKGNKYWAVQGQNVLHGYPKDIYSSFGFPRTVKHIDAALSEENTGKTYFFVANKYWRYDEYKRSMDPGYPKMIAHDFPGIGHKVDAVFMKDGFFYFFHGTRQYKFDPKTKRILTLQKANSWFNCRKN
Chain of MMP24 (Q9Y5R2 156-645, species assumed): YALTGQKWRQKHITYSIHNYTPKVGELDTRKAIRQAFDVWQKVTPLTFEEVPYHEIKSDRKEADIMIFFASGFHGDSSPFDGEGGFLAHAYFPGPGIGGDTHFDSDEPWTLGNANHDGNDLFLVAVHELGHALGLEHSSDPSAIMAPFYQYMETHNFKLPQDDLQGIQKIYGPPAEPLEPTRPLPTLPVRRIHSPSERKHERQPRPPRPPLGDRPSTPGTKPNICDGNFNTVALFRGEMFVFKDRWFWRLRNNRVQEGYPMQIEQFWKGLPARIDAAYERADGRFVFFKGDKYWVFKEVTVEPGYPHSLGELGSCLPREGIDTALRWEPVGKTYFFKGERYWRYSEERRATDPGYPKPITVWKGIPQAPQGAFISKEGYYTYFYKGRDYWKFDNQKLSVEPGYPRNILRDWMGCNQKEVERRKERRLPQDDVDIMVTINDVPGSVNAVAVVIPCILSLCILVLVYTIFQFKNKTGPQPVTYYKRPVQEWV

In the case of `CC(=O)O[C@@]12CO[C@@H]1C[C@H](O)[C@@]1(C)C(=O)[C@H](O)C3=C(C)[C@@H](OC(=O)[C@H](O)[C@@H](NC(=O)OC(C)(C)C)c4ccccc4)C[C@@](O)([C@@H](OC(=O)c4ccccc4)[C@H]21)C3(C)C` [Docetaxel, reference compound], the tumor growth result in assay [1] is “significant inhibition of tumor growth”.
In the case of `C[C@H](NC(=O)CN(C)C(=O)CN(C)C(=O)CN(C)C(=O)CN(C)C(=O)CN(C)C(=O)CN(C)C(=O)CN(C)C(=O)CN(C)C(=O)CN(C)C(=O)CN(C)C(=O)CCN)C(=O)N[C@H]1CSCc2cc3cc(c2)CSC[C@H](NC(=O)[C@@H](C)NC(=O)[C@H](Cc2cccc4ccccc24)NC(=O)[C@H](CCC(=O)O)NC(=O)[C@H](CC(N)=O)NC(=O)[C@@H](C)NC1=O)C(=O)N[C@@H](CCC(=O)O)C(=O)N[C@@H](CC(=O)O)C(=O)N[C@@H](Cc1ccccc1)C(=O)N[C@@H](Cc1ccc(O)cc1)C(=O)N[C@@H](CC(=O)O)C(=O)N[C@@H](C(C)(C)C)C(=O)N[C@H](C(N)=O)CSC3` [N241] (H-[βAla][Sar][Sar][Sar][Sar][Sar][Sar][Sar][Sar][Sar][Sar]AC[dA]NE[1Nal][dA]CEDFYD[Tle]C-NH2; linker 13-19-26 via TBMB; N-terminus and C-terminus assumed), the “impact on cell migration or invasion” value in assay [2] is reported as “no direct impact”. Further, the binding entry in assay [3], in assay [4], in assay [6], in assay [7], in assay [8] and in [9] was “no binding” throughout. Also, the binding result in assay [13] was “no binding”. Further, the “impact on catalytic activity” value in assay [5], in assay [10], in assay [11] and in assay [12] was “no direct impact” in each case.
